These results are taken from US20250241890A1, “1,4-DIUREAS AND 1,4-DITHIOUREAS AND USES THEREOF” (Purdue Research Foundation, priority 2024, published 2025).

For this series, the system named is M17D-TR/αS-3K::YFP cells. The series is described as follows: α-Syn inclusion-forming neuroblastoma cell experiment (Incucyte). In kind it is cell-based. Conditions: M17D αS-3K::YFP cells; for cell confluence: relative to DMSO vehicle. As for the experimental part:
FIG. 11. Compound 1 prevents αS inclusion formation. M17D cells expressing the inclusion-prone αS-3K::YFP fusion protein (dox-inducible) were treated with 0.1% DMSO (vehicle; “0 μM”) as well as 1.25, 2.5, 5 and 10 μM of compounds 1, 2 and 8 at t=24 hours after plating. Cells were induced with doxycycline at t=48 hours. A) Incucyte-based analysis of punctate YFP signals relative to 0.1% DMSO was done at t=96 hours (N=3 independent experiments, n=6-18 individual wells total (0 μM, n=18; 10 μM, n=6; all other concentrations, n=12). B) Same as panel A, but confluence fold changes relative to DMSO vehicle (0 μM) were plotted. C) Representative IncuCyte images of reporter cells treated with vehicle vs. 10 μM compounds 1, 2, or 8 (t=96 h), green channel. Arrows indicate αS-rich YFP-positive inclusions. Scale bar, 50 μm. All data are presented as fold-changes relative to DMSO control +/−standard deviation. One-way ANOVA, Dunnett's post-hoc test; *, p<0.05; **, p<0.01; ***, p<0.001.
Chemical and peptide source. Dimethylsulfoxide (DMSO) and thioflavin-T (ThT) were purchased from Alfa Aesar (Ward Hill, MA). Recombinant α-synuclein (α-syn) was procured from rPeptide (WatKinsville, GA). The recombinant p-tau isoform 1N4R was prepared as published previously (Fortin et al. 2021, Sui et al. 2015, Liu et al. 2020). Concerning the preparation of tau 0N4R, a bacterial expression plasmid consisting of the vector pET30a carrying a cDNA encoding the human Tau 0N4R isoform was a kind gift of Dr. Benjamin Wolozin (Boston University). E. coli stock (Rosetta BL21 E. coli (CamR) containing pET30a [0N4R tau wt] (KanR)) was grown in LB medium supplemented with kanamycin (50 μg/mL) and chloramphenicol (50 μg/mL). Protein over-expression was induced by the addition of 1 mM IPTG for ˜18 hours at 37° C., and cells were pelleted by centrifugation at 6,000 g for 15 minutes at 4° C. The cells were resuspended in lysis buffer (10 mM Hepes, pH 7.4, 50 mM NaCl, 1 mM MgCl2, 1 mM PMSF, 1× PIC, and 0.5 mM DTT) and lysed by sonication at 30 seconds “On” and 1 minute “Off” at ˜30-45% power for ˜3-5 minutes. Lysate was centrifuged at 10,000 rpm for 10 minutes at 4° C., and supernatant was transferred with 7.8 ml (total) of 3M NaCl. The lysate was incubated for 10 minutes in 80° C. water bath, then cooled for 10 minutes in an ice bath. The lysate was centrifuged at 10,000 rpm at 4° C. for 10 minutes, and the supernatant was transferred to a new tube. The supernatant was dialyzed overnight against cation exchange buffer (50 mM MES, […], 1 mM DTT, pH 6.0). The dialysate was loaded onto a HiPrep SP HP column, and proteins were eluted with a linear gradient ranging from 50 mM to 1 M NaCl. General Characterizations. ^1H and ^13C {1H} NMR spectra were recorded using a 500 MHz Bruker instrument working at a frequency of 500 MHz for ^1H and at 126 MHz for ^13C. Chemical shifts are reported in ppm using residual solvent resonances as internal reference (δ 2.50 and δ 39.51 for ^1H and ^13C in DMSO-d6, respectively). ^1H NMR data are reported as follows. b=broad, s=singlet, d=doublet, t=triplet, q=quartet, and m=multiplet. Coupling constants are given in hertz. The purity of all compounds and synthetic intermediates was judged to be 95% or better based on ^1H NMR. […] Thioflavin fluorescence assays. Thioflavin fluorescence assays were used to monitor fibril formation of commercial recombinant α-syn at a final concentration of 2 μM and treated with control DMSO and different compounds. […]

`S=C(Nc1ccc(NC(=S)Nc2cccc3cc[nH]c23)cc1)Nc1cccc2cc[nH]c12` [Compound 8, 3-(1H-indol-7-yl)-1-(4-{[(1H-indol-7-yl)carbamothioyl]amino}phenyl)thiourea]: the cell confluence result (1.25 to 10 μM) is given as “did not exhibit changes in the cell confluence”. Moreover, the “numbers of α-syn inclusions” value (1.25 to 10 μM, t=96 hours) is “very minimal changes in the numbers of inclusions”.
For `S=C(Nc1ccc(NC(=S)Nc2cccc3[nH]ccc23)cc1)Nc1cccc2[nH]ccc12` [Compound 2, 3-(1H-indol-4-yl)-1-(4-{[(1H-indol-4-yl)carbamothioyl]amino}phenyl)thiourea], the cell confluence entry (1.25 to 10 μM) is listed as “did not exhibit changes in the cell confluence”. Further, where the note is “5 and 10 μM, t=96 hours”, the “α-syn inclusion formation (punctate YFP signals relative to DMSO)” value is “increased the inclusions”.
With `O=C(Nc1ccc(NC(=O)Nc2cccc3[nH]ccc23)cc1)Nc1cccc2[nH]ccc12` [Compound 1, 3-(1H-indol-4-yl)-1-(4-{[(1H-indol-4-yl)carbamoyl]amino}phenyl)urea], where the note is “1.25 to 10 μM”, the cell confluence entry is listed as “did not exhibit changes in the cell confluence”.
